Measurements taken from PMC9090415, “Discovery of small molecule inhibitors of Plasmodium falciparum apicoplast DNA polymerase” (Journal of Enzyme Inhibition and Medicinal Chemistry, 2022).

Target: P. falciparum apicoplast DNA polymerase (Pf-apPOL) (Plasmodium falciparum, UniProt Q8ILY1)
Test: Fluorescence-based high-throughput DNA polymerase assay (molecular beacon), primary screen and dose-response;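 as to % inhibition Apol 40': compound concentration given in µM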
Assay type: biochemical
Conditions: for DNA Pol: 90 min, 10 µM
How it was run: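 Single-point screening used 10 µM compound with 20 nM polymerase, 20 nM hairpin substrate and 6 µM dNTPs for 90 min at 25 °C. Confirmatory titrations (2.5–80 µM) followed fluorescence at three times, and IC50 was derived from a fit including a cooperativity term n.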

[1] = "DNA Pol" of the 186 hits list (screen value)

Chain of P. falciparum apicoplast DNA polymerase (Pf-apPOL) (Q8ILY1 entry or part of it): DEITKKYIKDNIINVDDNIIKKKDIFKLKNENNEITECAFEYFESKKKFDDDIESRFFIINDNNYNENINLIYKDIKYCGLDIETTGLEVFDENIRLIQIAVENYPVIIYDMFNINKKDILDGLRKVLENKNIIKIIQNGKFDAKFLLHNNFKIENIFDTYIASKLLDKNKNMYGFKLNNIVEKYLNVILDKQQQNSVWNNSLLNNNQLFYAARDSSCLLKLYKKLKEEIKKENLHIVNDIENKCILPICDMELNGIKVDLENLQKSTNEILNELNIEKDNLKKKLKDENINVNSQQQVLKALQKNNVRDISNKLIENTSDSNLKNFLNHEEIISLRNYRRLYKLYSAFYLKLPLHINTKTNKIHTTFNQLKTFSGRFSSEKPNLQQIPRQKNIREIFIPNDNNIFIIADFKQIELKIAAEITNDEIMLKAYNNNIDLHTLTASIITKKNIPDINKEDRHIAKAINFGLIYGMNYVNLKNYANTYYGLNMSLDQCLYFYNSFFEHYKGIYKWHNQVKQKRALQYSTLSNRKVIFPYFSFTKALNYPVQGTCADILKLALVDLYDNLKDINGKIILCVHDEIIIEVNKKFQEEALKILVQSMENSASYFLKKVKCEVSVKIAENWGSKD

COc1cccc(C(=O)N2CCc3c(nc4cc(-c5ccccc5)[nH]n4c3=O)C2)c1OC [Molecule 22, COc1c(OC)cccc1C(=O)N1CCc2c(C1)nc1n(c2=O)[nH]c(c1)c1ccccc1]
DNA Pol [1]: 45
% inhibition Apo pol 10' (DRC-1, concentration 2.5): -0.412%
% inhibition Apo pol 10' (DRC-1, concentration 5): 25%
% inhibition Apo pol 10' (DRC-1, concentration 10): 67%
% inhibition Apo pol 10' (DRC-1, concentration 20): 81%
% inhibition Apo pol 10' (DRC-1, concentration 40): 88%
% inhibition Apo pol 10' (DRC-1, concentration 80): 81%
% inhibition Apol 90' (DRC-1, concentration 2.5): -3%
% inhibition Apol 90' (DRC-1, concentration 5): 12%
% inhibition Apol 90' (DRC-1, concentration 10): 49%
% inhibition Apol 90' (DRC-1, concentration 20): 67%
% inhibition Apol 90' (DRC-1, concentration 40): 83%
% inhibition Apol 90' (DRC-1, concentration 80): 84%
% inhibition apPOL 180' (DRC-1, concentration 2.5): -5.7%
% inhibition apPOL 180' (DRC-1, concentration 5): 2.34%
% inhibition apPOL 180' (DRC-1, concentration 10): 32%
% inhibition apPOL 180' (DRC-1, concentration 20): 49%
% inhibition apPOL 180' (DRC-1, concentration 40): 73%
% inhibition apPOL 180' (DRC-1, concentration 80): 78%
% inhibition Apo pol 5' (DRC-2, concentration 2.5): -0.913%
% inhibition Apo pol 5' (DRC-2, concentration 5): 19%
% inhibition Apo pol 5' (DRC-2, concentration 10): 42%
% inhibition Apo pol 5' (DRC-2, concentration 20): 52%
% inhibition Apo pol 5' (DRC-2, concentration 40): 55%
% inhibition Apo pol 5' (DRC-2, concentration 80): 47%
% inhibition Apol 40' (DRC-2, concentration 2.5): -1.15%
% inhibition Apol 40' (DRC-2, concentration 5): 21%
% inhibition Apol 40' (DRC-2, concentration 10): 45%
% inhibition Apol 40' (DRC-2, concentration 20): 61%
% inhibition Apol 40' (DRC-2, concentration 40): 69%
% inhibition Apol 40' (DRC-2, concentration 80): 66%
% inhibition ApPOL 90' (DRC-2, concentration 2.5): 0.469%
% inhibition ApPOL 90' (DRC-2, concentration 5): 20%
% inhibition ApPOL 90' (DRC-2, concentration 10): 44%
% inhibition ApPOL 90' (DRC-2, concentration 20): 61%
% inhibition ApPOL 90' (DRC-2, concentration 40): 70%
% inhibition ApPOL 90' (DRC-2, concentration 80): 70%
% inhibition apPOL 180' (DRC-2, concentration 2.5): -0.311%
% inhibition apPOL 180' (DRC-2, concentration 5): 13%
% inhibition apPOL 180' (DRC-2, concentration 10): 34%
% inhibition apPOL 180' (DRC-2, concentration 20): 53%
% inhibition apPOL 180' (DRC-2, concentration 40): 65%
% inhibition apPOL 180' (DRC-2, concentration 80): 69%
% inhibition Apo pol 10' (first DRC, concentration 10): 67%
% inhibition Apo pol 10' (first DRC, concentration 20): 81%
% inhibition Apo pol 10' (first DRC, concentration 80): 81%
% inhibition Apol 90' (first DRC, concentration 10): 49%
% inhibition Apol 90' (first DRC, concentration 20): 67%
% inhibition apPOL 180' (first DRC, concentration 20): 49%
DNA Pol (primary screen value, DNA Pol): 45

Cc1nc(/N=N/c2ccc(C(=O)[O-])cc2)c(COP(=O)([O-])[O-])c(C=O)c1O.[Na+].[Na+].[Na+] [KU0261395]
DNA Pol ('DNA Pol' of the 186 hits list (primary screen value)): 94
DNA Pol (DNA Pol (primary screen value)): 94
% inhibition Apo pol 10' (DRC-1, concentration 2.5): 68.7077%
% inhibition Apo pol 10' (DRC-1, concentration 5): 75.1682%
% inhibition Apo pol 10' (DRC-1, concentration 10): 82.6072%
% inhibition Apo pol 10' (DRC-1, concentration 20): 83.4638%
% inhibition Apo pol 10' (DRC-1, concentration 40): 87.7541%
% inhibition Apo pol 10' (DRC-1, concentration 80): 88.013%
% inhibition Apol 90' (DRC-1, concentration 2.5): 38.1069%
% inhibition Apol 90' (DRC-1, concentration 5): 43.9893%
% inhibition Apol 90' (DRC-1, concentration 10): 54.4878%
% inhibition Apol 90' (DRC-1, concentration 20): 58.7781%
% inhibition Apol 90' (DRC-1, concentration 40): 68.7531%
% inhibition Apol 90' (DRC-1, concentration 80): 75.4152%
% inhibition apPOL 180' (DRC-1, concentration 2.5): 26.3863%
% inhibition apPOL 180' (DRC-1, concentration 5): 31.3621%
% inhibition apPOL 180' (DRC-1, concentration 10): 42.4654%
% inhibition apPOL 180' (DRC-1, concentration 20): 47.0791%
% inhibition apPOL 180' (DRC-1, concentration 40): 59.2191%
% inhibition apPOL 180' (DRC-1, concentration 80): 68.3493%
% inhibition Apo pol 5' (DRC-2, concentration 2.5): 42%
% inhibition Apo pol 5' (DRC-2, concentration 5): 44%
% inhibition Apo pol 5' (DRC-2, concentration 10): 53%
% inhibition Apo pol 5' (DRC-2, concentration 20): 53%
% inhibition Apo pol 5' (DRC-2, concentration 40): 54%
% inhibition Apo pol 5' (DRC-2, concentration 80): 55%
% inhibition Apol 40' (DRC-2, concentration 2.5): 33%
% inhibition Apol 40' (DRC-2, concentration 5): 40%
% inhibition Apol 40' (DRC-2, concentration 10): 51%
% inhibition Apol 40' (DRC-2, concentration 20): 56%
% inhibition Apol 40' (DRC-2, concentration 40): 61%
% inhibition Apol 40' (DRC-2, concentration 80): 66%
% inhibition ApPOL 90' (DRC-2, concentration 2.5): 29%
% inhibition ApPOL 90' (DRC-2, concentration 5): 36%
% inhibition ApPOL 90' (DRC-2, concentration 10): 48%
% inhibition ApPOL 90' (DRC-2, concentration 20): 53%
% inhibition ApPOL 90' (DRC-2, concentration 40): 60%
% inhibition ApPOL 90' (DRC-2, concentration 80): 66%
% inhibition apPOL 180' (DRC-2, concentration 2.5): 20%
% inhibition apPOL 180' (DRC-2, concentration 5): 26%
% inhibition apPOL 180' (DRC-2, concentration 10): 39%
% inhibition apPOL 180' (DRC-2, concentration 20): 48%
% inhibition apPOL 180' (DRC-2, concentration 40): 56%
% inhibition apPOL 180' (DRC-2, concentration 80): 66%

CCOC(=O)C1=C2c3cc(OC)c(OC)cc3CC(C)(C)N2C(=O)C1=O [KU0193659]
DNA Pol [1]: 50
% inhibition Apo pol 10' (DRC-1, concentration 2.5): 0.5902%
% inhibition Apo pol 10' (DRC-1, concentration 5): 6.068%
% inhibition Apo pol 10' (DRC-1, concentration 10): 24.2091%
% inhibition Apo pol 10' (DRC-1, concentration 20): 48.7622%
% inhibition Apo pol 10' (DRC-1, concentration 40): 76.2717%
% inhibition Apo pol 10' (DRC-1, concentration 80): 83.8971%
% inhibition Apol 90' (DRC-1, concentration 2.5): 2.413%
% inhibition Apol 90' (DRC-1, concentration 5): 7.311%
% inhibition Apol 90' (DRC-1, concentration 10): 23.2588%
% inhibition Apol 90' (DRC-1, concentration 20): 44.3755%
% inhibition Apol 90' (DRC-1, concentration 40): 72.221%
% inhibition Apol 90' (DRC-1, concentration 80): 80.3053%
% inhibition apPOL 180' (DRC-1, concentration 2.5): 2.939%
% inhibition apPOL 180' (DRC-1, concentration 5): 8.013%
% inhibition apPOL 180' (DRC-1, concentration 10): 23.6538%
% inhibition apPOL 180' (DRC-1, concentration 20): 40.1403%
% inhibition apPOL 180' (DRC-1, concentration 40): 67.3971%
% inhibition apPOL 180' (DRC-1, concentration 80): 76.7403%
% inhibition Apo pol 5' (DRC-2, concentration 2.5): -4%
% inhibition Apo pol 5' (DRC-2, concentration 5): -4.49%
% inhibition Apo pol 5' (DRC-2, concentration 10): 16%
% inhibition Apo pol 5' (DRC-2, concentration 20): 26%
% inhibition Apo pol 5' (DRC-2, concentration 40): 41%
% inhibition Apo pol 5' (DRC-2, concentration 80): 41%
% inhibition Apol 40' (DRC-2, concentration 2.5): -2.41%
% inhibition Apol 40' (DRC-2, concentration 5): -3%
% inhibition Apol 40' (DRC-2, concentration 10): 21%
% inhibition Apol 40' (DRC-2, concentration 20): 39%
% inhibition Apol 40' (DRC-2, concentration 40): 57%
% inhibition Apol 40' (DRC-2, concentration 80): 57%
% inhibition ApPOL 90' (DRC-2, concentration 2.5): -1.64%
% inhibition ApPOL 90' (DRC-2, concentration 5): -0.605%
% inhibition ApPOL 90' (DRC-2, concentration 10): 22%
% inhibition ApPOL 90' (DRC-2, concentration 20): 43%
% inhibition ApPOL 90' (DRC-2, concentration 40): 64%
% inhibition ApPOL 90' (DRC-2, concentration 80): 62%
% inhibition apPOL 180' (DRC-2, concentration 2.5): -2%
% inhibition apPOL 180' (DRC-2, concentration 5): 1.35%
% inhibition apPOL 180' (DRC-2, concentration 10): 23%
% inhibition apPOL 180' (DRC-2, concentration 20): 46%
% inhibition apPOL 180' (DRC-2, concentration 40): 68%
% inhibition apPOL 180' (DRC-2, concentration 80): 66%
DNA Pol (primary screen value, DNA Pol): 50
